Source: ChEMBL document CHEMBL1201862, “PubChem BioAssay data set” (2004)
Active and inactive are the calls of the source.

Legend:
[1] = ZM109 Env clade C HIV-1 fusion inhibitors, dose response, HeLa effector, CEM target cells, luciferase, cherry-pick (AID 652058); format: functional, cell-based
Protein RecA = biological target: T1, Protein RecA (Mycobacterium tuberculosis, UniProt P9WHJ3); assay: Fluorescence Cell-Free Homogeneous Dose Retest to Identify Inhibitors of RecA-Intein Splicing Activity. [Related pubchem assays (depositor defined):AID2097, AID2223, AID489010, AID492950]; format: functional
T1 sequence (P9WHJ3 whole entry): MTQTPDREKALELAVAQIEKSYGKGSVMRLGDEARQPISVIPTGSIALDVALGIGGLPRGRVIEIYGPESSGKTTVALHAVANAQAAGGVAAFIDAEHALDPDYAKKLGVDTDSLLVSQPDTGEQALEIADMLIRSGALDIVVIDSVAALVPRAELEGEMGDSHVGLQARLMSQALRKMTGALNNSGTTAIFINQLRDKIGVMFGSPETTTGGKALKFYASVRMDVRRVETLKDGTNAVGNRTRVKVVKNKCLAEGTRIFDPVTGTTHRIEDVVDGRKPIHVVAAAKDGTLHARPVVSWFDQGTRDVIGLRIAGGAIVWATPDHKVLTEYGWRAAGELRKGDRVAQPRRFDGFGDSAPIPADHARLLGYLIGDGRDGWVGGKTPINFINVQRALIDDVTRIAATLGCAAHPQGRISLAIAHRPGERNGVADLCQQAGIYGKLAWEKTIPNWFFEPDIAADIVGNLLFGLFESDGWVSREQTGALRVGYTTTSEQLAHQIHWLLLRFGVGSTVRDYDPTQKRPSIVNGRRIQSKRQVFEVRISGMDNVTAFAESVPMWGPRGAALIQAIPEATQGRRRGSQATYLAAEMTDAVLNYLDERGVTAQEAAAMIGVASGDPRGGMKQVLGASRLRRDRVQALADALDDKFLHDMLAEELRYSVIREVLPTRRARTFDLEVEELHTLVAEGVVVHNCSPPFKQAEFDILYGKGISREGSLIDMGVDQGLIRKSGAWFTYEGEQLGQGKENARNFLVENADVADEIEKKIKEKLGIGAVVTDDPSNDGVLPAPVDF

[2] = inhibitors of HIV Env-driven cell fusion, dose response, cherry-pick (AID 652057); format: functional, cell-based
[3] = off-target signal loss in HeLa-CEM21 co-culture – HeLa F-luc CTL cells, cherry-picked, counter-screen for HIV-1 Env fusion inhibitor project, dose response (AID 652040); format: functional, cell-based;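 further: potency for signal decrease marking cytotoxic or nonspecific inhibition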
[4] = HEp-2 cell cytotoxicity, dose response, cytotoxicity control for RSV inhibitor project, HTS (AID 2410); format: functional; conditions: human respiratory syncytial virus
[5] = inhibitors of clade B AD8 Env fusion, dose response, cell-based, cherry-pick (AID 652062); format: functional;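 further: luciferase signal from cell-cell fusion driven by HIV-1 clade B AD8 Env; potency is for inhibitors of fusion seen as a drop in luminescence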
[6] = biological target: T2, Replicative DNA helicase DnaB (Mycobacterium tuberculosis, UniProt P9WMR3); assay: DnaB intein splicing inhibitors, dose response, biochemical, cell-free fluorescence (AID 449749); format: functional
T2 sequence (P9WMR3 whole entry): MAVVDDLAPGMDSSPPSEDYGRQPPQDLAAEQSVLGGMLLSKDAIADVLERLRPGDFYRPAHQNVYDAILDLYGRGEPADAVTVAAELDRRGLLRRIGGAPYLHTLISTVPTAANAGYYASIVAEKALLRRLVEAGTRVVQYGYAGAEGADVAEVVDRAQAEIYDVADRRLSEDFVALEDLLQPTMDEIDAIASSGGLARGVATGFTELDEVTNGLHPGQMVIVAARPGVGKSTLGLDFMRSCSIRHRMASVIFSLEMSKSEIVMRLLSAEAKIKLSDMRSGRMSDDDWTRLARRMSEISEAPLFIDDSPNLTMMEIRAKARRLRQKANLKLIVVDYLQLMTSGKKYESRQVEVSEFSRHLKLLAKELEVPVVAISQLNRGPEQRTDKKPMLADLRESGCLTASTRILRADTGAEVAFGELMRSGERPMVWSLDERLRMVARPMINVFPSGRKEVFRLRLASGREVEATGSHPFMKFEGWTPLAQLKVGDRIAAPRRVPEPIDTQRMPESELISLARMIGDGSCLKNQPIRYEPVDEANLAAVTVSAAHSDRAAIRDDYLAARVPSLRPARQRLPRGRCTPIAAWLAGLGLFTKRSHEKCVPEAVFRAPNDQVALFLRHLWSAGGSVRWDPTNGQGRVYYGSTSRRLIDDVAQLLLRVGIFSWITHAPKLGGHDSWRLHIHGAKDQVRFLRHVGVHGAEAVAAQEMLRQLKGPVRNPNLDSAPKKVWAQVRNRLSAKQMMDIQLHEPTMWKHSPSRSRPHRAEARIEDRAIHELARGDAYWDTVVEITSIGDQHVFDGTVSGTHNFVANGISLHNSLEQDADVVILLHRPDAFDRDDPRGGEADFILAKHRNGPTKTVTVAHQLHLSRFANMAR

[7] = CEM21 lymphoblast cell cytotoxicity, dose response, cytotoxicity control for viral fusion inhibitor project, CellTiter-Glo luminescence, cherry-picked (AID 652042); format: functional, cell-based;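 further: potency for signal decrease meaning cytotoxicity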
[8] = biological target: T3, Oxysterols receptor LXR-beta (Homo sapiens, UniProt P55055); format: functional, cell-based;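 further: Cell-based luminescence dose-response assay of agonist activity at LXR, run as a confirmatory counterscreen to a daf-12 agonist screen; agonist potency from rising luciferase signal of a Gal4-LXR reporter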
T3 sequence (P55055 whole entry): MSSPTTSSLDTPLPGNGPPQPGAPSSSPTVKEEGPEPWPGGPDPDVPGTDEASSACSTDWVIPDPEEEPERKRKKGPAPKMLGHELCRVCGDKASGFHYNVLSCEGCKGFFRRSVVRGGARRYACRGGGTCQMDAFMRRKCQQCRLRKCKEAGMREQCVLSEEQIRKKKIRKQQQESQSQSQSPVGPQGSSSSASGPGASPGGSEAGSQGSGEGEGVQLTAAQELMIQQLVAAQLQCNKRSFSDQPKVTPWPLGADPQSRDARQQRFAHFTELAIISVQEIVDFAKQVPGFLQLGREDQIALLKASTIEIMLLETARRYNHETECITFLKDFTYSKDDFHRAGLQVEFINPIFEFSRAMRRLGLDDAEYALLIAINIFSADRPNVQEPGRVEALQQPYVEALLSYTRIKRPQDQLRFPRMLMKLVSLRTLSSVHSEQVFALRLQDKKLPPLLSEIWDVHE

[9] = Luminescence-based cell-based high throughput dose response assay to identify activators of the DAF-12 from the parasite S. stercoralis (ssDAF-12).; format: functional
[10] = biological target: T3, Oxysterols receptor LXR-beta; assay: LXR agonists, Gal4 luciferase reporter, dose response, counter-screen for ssDAF-12 agonist project, cell-based, luminescence, HEK293, S. stercoralis campaign (AID 720737); format: functional; conditions: read-out: IC50 (the source's name)
P388/ADR = assay: cells; format: functional; conditions: Mus musculus
SN12K1 = assay: cells; format: functional; conditions: Homo sapiens
P388 = assay: cells; format: functional; conditions: Mus musculus
[11] = biological target: T4, Polyadenylate-binding protein 1 (Homo sapiens, UniProt P11940); assay: PABP1 MLLE–PAM2 binding inhibitor potency, dose response, biochemical, fluorescence polarization, FITC-PAM2 peptide (AID 602259); format: functional; conditions: read-out: IC50_Mean
T4 sequence (P11940 whole entry): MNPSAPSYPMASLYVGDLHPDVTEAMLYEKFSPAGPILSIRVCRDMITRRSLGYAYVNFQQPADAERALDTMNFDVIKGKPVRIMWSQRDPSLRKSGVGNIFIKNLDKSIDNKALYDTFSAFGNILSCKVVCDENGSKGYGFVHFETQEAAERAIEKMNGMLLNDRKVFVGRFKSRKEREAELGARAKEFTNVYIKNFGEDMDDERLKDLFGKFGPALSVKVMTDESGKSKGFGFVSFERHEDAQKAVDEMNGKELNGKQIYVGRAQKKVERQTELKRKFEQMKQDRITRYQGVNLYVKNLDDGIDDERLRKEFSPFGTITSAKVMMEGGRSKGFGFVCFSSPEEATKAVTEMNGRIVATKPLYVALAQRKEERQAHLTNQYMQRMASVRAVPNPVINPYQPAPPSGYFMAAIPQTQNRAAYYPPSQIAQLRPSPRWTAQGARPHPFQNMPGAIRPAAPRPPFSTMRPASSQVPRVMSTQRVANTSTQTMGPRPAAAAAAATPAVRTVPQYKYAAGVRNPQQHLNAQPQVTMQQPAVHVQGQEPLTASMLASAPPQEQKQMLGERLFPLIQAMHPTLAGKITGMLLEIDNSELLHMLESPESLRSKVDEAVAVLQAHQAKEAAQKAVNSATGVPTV

[12] = biological target: T4, Polyadenylate-binding protein 1; assay: PABP1 MLLE–PAM2 interaction inhibitors, dose response, miRNA deadenylation inhibitor project, biochemical, fluorescence polarization, Cy5-PAM2 peptide, secondary (AID 602260); format: functional; conditions: read-out: IC50_Mean
Caspase-6 = biological target: T5, Caspase-6 (Homo sapiens, UniProt P55212); assay: human caspase-6 inhibitors, dose response, biochemical, VEID-R110 fluorescence, cherry-pick (AID 720632)
T5 sequence (P55212 whole entry): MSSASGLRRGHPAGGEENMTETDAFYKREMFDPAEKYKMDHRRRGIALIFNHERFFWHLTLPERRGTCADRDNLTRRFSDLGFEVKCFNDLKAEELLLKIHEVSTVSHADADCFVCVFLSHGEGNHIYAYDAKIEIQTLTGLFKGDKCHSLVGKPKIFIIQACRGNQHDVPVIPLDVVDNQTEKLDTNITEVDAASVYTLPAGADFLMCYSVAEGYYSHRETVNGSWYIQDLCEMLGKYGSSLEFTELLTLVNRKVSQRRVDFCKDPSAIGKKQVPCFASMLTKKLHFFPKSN

[13] = biological target: T6, Mannose-6-phosphate isomerase (Homo sapiens, UniProt P34949); assay: human PMI inhibitors, high substrate, primary screen, biochemical, fluorescence intensity, high mannose 6-phosphate (AID 1220)
T6 sequence (P34949 whole entry): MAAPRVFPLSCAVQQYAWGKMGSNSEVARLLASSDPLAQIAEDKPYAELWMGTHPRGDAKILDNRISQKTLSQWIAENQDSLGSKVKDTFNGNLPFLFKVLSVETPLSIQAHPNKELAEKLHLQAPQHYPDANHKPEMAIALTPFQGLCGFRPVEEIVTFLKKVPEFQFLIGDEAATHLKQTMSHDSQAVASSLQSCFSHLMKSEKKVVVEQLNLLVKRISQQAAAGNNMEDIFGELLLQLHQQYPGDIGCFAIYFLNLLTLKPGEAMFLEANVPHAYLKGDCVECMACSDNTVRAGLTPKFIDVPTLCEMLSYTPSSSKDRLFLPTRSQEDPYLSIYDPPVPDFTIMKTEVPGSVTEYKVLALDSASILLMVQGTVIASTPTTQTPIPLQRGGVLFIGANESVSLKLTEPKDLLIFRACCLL

Oc1nnc(Sc2ncnc3sccc23)n1CCc1ccccc1
AC50 [1]: 16.6 µM (active) | EC50 (Protein RecA): 18 µM (active) | AC50 [2]: 7.58 µM (active) | AC50 [3]: 17.3 µM (active) | CC50 [4]: 14.9 µM (active) | AC50 [5]: 18.1 µM (active) | AC50 [6]: > 380 µM (inactive) | AC50 [7]: 27 µM (active)

Fc1ccccc1-c1nc(-c2ccccc2)no1
EC50 [8]: > 67.5 µM (inactive) | EC50 (cells): > 67.5 µM (inactive)

Cc1ccc(C(=O)C2CC2)c(C)c1
IC50 [9]: > 67.4 µM (inactive) | EC50 [10]: > 67.4 µM (inactive)

Cc1cccc2c(N=Nc3ccccc3)c(O)[nH]c12
EC50 [8]: > 67.5 µM (inactive) | EC50 (cells): > 67.5 µM (inactive) | IC50 [9]: > 67.5 µM (inactive) | EC50 [10]: > 67.5 µM (inactive)

CN1N=C(N)c2cn(C3OC(COP(=O)(O)O)C(O)C3O)c3ncnc1c23 (stereo not drawn)
GI50 (P388/ADR): 0.5 µM (active) | GI50 (SN12K1): 32.8 µM (inactive) | GI50 (P388): 0.5 µM (active) | IC50 [11]: > 66 µM (inactive) | IC50 [12]: > 66 µM (inactive) | AC50 (Caspase-6): 29.6 µM (active)

CCC1(CC)Cc2ccccc2C2=C(C(=O)N3CCCCC3)C(=O)C(=O)N21
IC50 [13]: > 50 µM (not active)
